{"source": "patent EP4818187A1", "about": "“COMPOUND AND USE THEREOF” (Ganzhou Hemay Pharmaceutical, Co., Ltd, priority 2023, dated 2025)", "format_in_all_cases": "cell-based", "key": {"[1]": {"system": "HepG2 (human liver cancer cell)", "assay": "In vitro inhibitory effect against human tumor cells (SRB)", "conditions": "HepG2, 72 h, 3 days"}, "[2]": {"system": "A375 (human malignant melanoma)", "assay": "In vitro inhibitory effect against human tumor cells (SRB)", "conditions": "A-375, 72 h, 3 days"}, "[3]": {"system": "MDA-MB-468 (human triple-negative breast cancer)", "assay": "In vitro inhibitory effect against human tumor cells (SRB)", "conditions": "MDA-MB-468, 72 h, MDA-MB-468, SRB, 3 days"}, "[4]": {"system": "22RV1 (human prostate cancer)", "assay": "In vitro inhibitory effect against human tumor cells (SRB)", "conditions": "22Rv1, 72 h, 22RV1, SRB, 3 days"}, "[5]": {"system": "SW620 (human colorectal cancer)", "assay": "In vitro inhibitory effect against human tumor cells (SRB)", "conditions": "SW-620, 72 h, 3 days"}, "[6]": {"system": "HCC827 (human non-small cell lung cancer)", "assay": "In vitro inhibitory effect against human tumor cells (SRB)", "conditions": "HCC827, 72 h, 3 days"}, "[7]": {"system": "BxPC-3 (human pancreatic cancer in situ)", "assay": "In vitro inhibitory effect against human tumor cells (MTT or SRB)", "conditions": "BXPC-3, 72 h, BxPC-3, test method printed MTT (head: SRB), 3 days"}, "[8]": {"system": "NCI-H1975 (human non-small cell lung cancer)", "assay": "In vitro inhibitory effect against human tumor cells (MTT)", "conditions": "NCI-H1975, 72 h, 3 days"}, "[9]": {"system": "HCT116 (human colorectal cancer)", "assay": "In vitro inhibitory effect against human tumor cells (MTT)", "conditions": "HCT-116, 72 h, 3 days"}, "[10]": {"system": "SK-OV-3 (human ovarian cancer)", "assay": "In vitro inhibitory effect against human tumor cells (MTT)", "conditions": "SK-OV-3, 72 h, SK-OV-3, MTT, 3 days"}, "[11]": {"system": "Fadu (human pharyngeal squamous cell carcinoma)", "assay": "In vitro inhibitory effect against human tumor cells (MTT)", "conditions": "72 h, 3 days"}, "[12]": {"system": "NCI-N87 (human gastric cancer cell)", "assay": "In vitro inhibitory effect against human tumor cells (MTT)", "conditions": "NCI-N87, 72 h, 3 days"}, "[13]": {"conditions": "With addition of βGU (1 µg/well)"}}, "data": [{"smiles": "CC[C@H](C)[C@@H]([C@@H](CC(=O)N1CCC[C@H]1[C@H](OC)[C@@H](C)C(=O)N[C@H](C)[C@@H](OCc1ccc(O[C@@H]2O[C@H](C(=O)[O-])[C@@H](O)[C@H](O)[C@H]2O)cc1OCc1cn(CCCCCC(=O)Nc2ccc(-c3ccc(/N=N/c4ccc5c(S(=O)(=O)[O-])cc(S(=O)(=O)[O-])c(N)c5c4O)c(C)c3)cc2C)nn1)c1ccccc1)OC)N(C)C(=O)[C@@H](NC(=O)[C@H](C(C)C)N(C)C)C(C)C.[Na+].[Na+].[Na+]", "note": "[Example compound 2]", "values": [{"measurement": "IC50", "setting": "[1]; [13]", "result": 4.3, "unit": "nM"}, {"measurement": "IC50", "setting": "[1]; βGU-free", "result": 120, "unit": "nM"}, {"measurement": "IC50", "setting": "[2]; [13]", "result": 6.7, "unit": "nM"}, {"measurement": "IC50", "setting": "[2]; βGU-free", "result": 212, "unit": "nM"}, {"measurement": "IC50", "setting": "[3]; [13]", "result": 2.7, "unit": "nM"}, {"measurement": "IC50", "setting": "[3]; βGU-free", "result": 24, "unit": "nM"}, {"measurement": "IC50", "setting": "[4]; [13]", "result": 7.5, "unit": "nM"}, {"measurement": "IC50", "setting": "[4]; βGU-free", "result": 176, "unit": "nM"}, {"measurement": "IC50", "setting": "[5]; [13]", "result": 6.7, "unit": "nM"}, {"measurement": "IC50", "setting": "[5]; βGU-free", "result": 81, "unit": "nM"}, {"measurement": "IC50", "setting": "[6]; [13]", "result": 3.8, "unit": "nM"}, {"measurement": "IC50", "setting": "[6]; βGU-free", "result": 110, "unit": "nM"}, {"measurement": "IC50", "setting": "[7]; [13]", "result": 3.9, "unit": "nM"}, {"measurement": "IC50", "setting": "[7]; βGU-free", "result": 43, "unit": "nM"}, {"measurement": "IC50", "setting": "[8]; [13]", "result": 4.3, "unit": "nM"}, {"measurement": "IC50", "setting": "[8]; βGU-free", "result": 114, "unit": "nM"}, {"measurement": "IC50", "setting": "[9]; [13]", "result": 6.1, "unit": "nM"}, {"measurement": "IC50", "setting": "[9]; βGU-free", "result": 143, "unit": "nM"}, {"measurement": "IC50", "setting": "[10]; [13]", "result": 6.1, "unit": "nM"}, {"measurement": "IC50", "setting": "[10]; βGU-free", "result": 211, "unit": "nM"}, {"measurement": "IC50", "setting": "[11]; [13]", "result": 2.7, "unit": "nM"}, {"measurement": "IC50", "setting": "[11]; βGU-free", "result": 38, "unit": "nM"}, {"measurement": "IC50", "setting": "[12]; [13]", "result": 5.6, "unit": "nM"}, {"measurement": "IC50", "setting": "[12]; βGU-free", "result": 81, "unit": "nM"}]}]}
